From patent US20050164882A1, “Method for increasing the resistance of plants to the phytotoxicity of agrochemicals” (priority 2002, published 2005) come the findings set out here.

One data set relates to Rice cv. “Koshihikari”. Briefly: Effect on plant growth: plant height (stunting) of rice clumps after seedbox spray and transplanting into the field. The format is in vivo. The following applies: 200 g of active ingredient A per hectare; three weeks after the treatment. An excerpt:
Rice cv. “Koshihikari” was sown in a seedbox and grown for 24 days under controlled warm and moist conditions in controlled-environment cabinets and in the greenhouse. Two days before the rice was transplanted into the field, each of the seedboxes was sprayed to runoff point with preparations of the active ingredient in the concentrations mentioned hereinbelow in the form of an aqueous suspension made with a stock solution consisting of 10% active ingredient, 85% cyclohexanone and 5% emulsifier. The seedboxes were subsequently cultured in the greenhouse for a further 2 days until the rice was manually transplanted into the field at a rate of 5 clumps per m^2.
Three weeks after the treatment, the plant height of the rice clumps was measured and compared with untreated rice plants. The extent of plant stunting is a measure for the plant-damaging effect of substances on the root system.

The test system of data set [1] is Oryza sativa (rice, ORYSA). The data set is described as follows: Greenhouse post-emergence phytotoxicity, rice. The settings on record: Table 2a.
Description: The active ingredients were prepared separately or jointly as a 10% emulsion in a mixture of 85% by weight of cyclohexanone, 5% by weight of Nekanil® LN (Lutensol® AP6, wetter with emulsifying and dispersing action based on ethoxylated alkylphenols) and 10% by weight of Wettol® EM (nonionic emulsifier based on ethoxylated castor oil) and diluted with water to give the desired concentration.
The culture containers used were plastic pots containing loamy sand with approximately 3.0% humus as substrate. The seeds of the test plants were sown separately for each species.
The test plants were grown separately as seedlings and transplanted into the experimental containers a few days before the treatment.
Depending on the species, the plants were kept at temperatures of from 10 to 25° C. or 20 to 35° C. The experimental period extended over 2 to 4 weeks. During this time, the plants were tended, and their response to the individual treatments was evaluated.
The phytotoxicity was evaluated using a scale of from 0 to 100. In this context, 100 means complete destruction of at least the aerial parts, and 0 means no damage or normal course of growth.
In data set [2] the test system is Echinochloa crus-galli (barnyardgrass, ECHCG). The data set is described as follows: Greenhouse post-emergence phytotoxicity, barnyardgrass. The data set is classed as in vivo. The following applies: Table 2a, application rate 0.0039 kg/ha, scale 0 to 100. An excerpt: (§1) The experimental period extended over 2 to 4 weeks.
Data set [3] relates to Triticum aestivum (spring wheat, TRZAS). The data set is described as follows: Greenhouse post-emergence phytotoxicity, spring wheat. The settings on record: Table 2b, scale 0 to 100. The format is in vivo.
Description: as §1

For data set [4], the system named is Chenopodium album (pigweed, CHEAL). Briefly: Greenhouse post-emergence phytotoxicity, pigweed. The format is in vivo. The settings on record: Table 2b, application rate 0.0313 kg/ha, scale 0 to 100.
Description: as §1

For data set [5], the system named is Pharbitis purpurea (morningglory, PHBPU). Briefly: Greenhouse post-emergence phytotoxicity, morningglory. The format is in vivo. The settings on record: scale 0 to 100.
Description: as §1

Take `C[C@H](Nc1c(-c2c(F)cc(F)cc2F)c(Cl)nc2ncnn12)C(F)(F)F` [A, [5-chloro-6-(2,4,6-trifluorophenyl)-[1,2,4]triazolo[1,5-a]pyrimidin-7-yl]-((S)-2,2,2-trifluoro-1-methylethyl)amine]: the “stunting (plant height compared with untreated rice plants)” value in the data set with Rice cv. “Koshihikari” is given as 15%.

As to `Cc1c(C(=O)c2cnn(C)c2O)ccc(S(C)(=O)=O)c1C1=NOCC1` [B, [3-(4,5-dihydroisoxazol-3-yl)-4-methane-sulfonyl-2-methylphenyl]-(5-hydroxy-1-methyl-1H-pyrazol-4-yl)-methanone], the “Pytotoxicity ORYSA” value in data set [1] (application rate 0.0039 kg/ha, scale 0 (no damage) to 100 (complete destruction)) is 20. Further, in data set [2], the “Pytotoxicity ECHCG” value stood at 90.

With `FC(F)(F)c1ccc(-c2nccc(Oc3cccc(C(F)(F)F)c3)n2)cc1` [C, 4-(3-trifluoromethylphenoxy)-2-(4-trifluoromethylphenyl)pyrimidine], the “Pytotoxicity TRZAS” value is on record as 20 in data set [3] (application rate 0.0078 kg/ha), 25 in data set [3] (application rate 0.0156 kg/ha) and 30 in data set [3] (application rate 0.0313 kg/ha). The “Pytotoxicity CHEAL” value in data set [4] stood at 98. In addition, the “Pytotoxicity ORYSA” value came to 10 in data set [1] (application rate 0.0078 kg/ha, scale 0 to 100) and 10 in data set [1] (application rate 0.0156 kg/ha, scale 0 to 100). Besides, the “Pytotoxicity PHBPU” value in data set [5] (Table 2a, application rate 0.0078 kg/ha) was determined as 98; in data set [5] (Table 2a, application rate 0.0156 kg/ha), 98; in data set [5] (Table 2b, application rate 0.0078 kg/ha), 98; in data set [5] (Table 2b, application rate 0.0156 kg/ha), 98.
